The target of assay [1] is T1, GrhO6 (Streptomyces sp. JP95, UniProt Q8KSX5).
T1 construct: recombinant, purified; group A FAD monooxygenase; acetylated at K5 by HyalJ in some assays
T1 sequence (Q8KSX5 1-520): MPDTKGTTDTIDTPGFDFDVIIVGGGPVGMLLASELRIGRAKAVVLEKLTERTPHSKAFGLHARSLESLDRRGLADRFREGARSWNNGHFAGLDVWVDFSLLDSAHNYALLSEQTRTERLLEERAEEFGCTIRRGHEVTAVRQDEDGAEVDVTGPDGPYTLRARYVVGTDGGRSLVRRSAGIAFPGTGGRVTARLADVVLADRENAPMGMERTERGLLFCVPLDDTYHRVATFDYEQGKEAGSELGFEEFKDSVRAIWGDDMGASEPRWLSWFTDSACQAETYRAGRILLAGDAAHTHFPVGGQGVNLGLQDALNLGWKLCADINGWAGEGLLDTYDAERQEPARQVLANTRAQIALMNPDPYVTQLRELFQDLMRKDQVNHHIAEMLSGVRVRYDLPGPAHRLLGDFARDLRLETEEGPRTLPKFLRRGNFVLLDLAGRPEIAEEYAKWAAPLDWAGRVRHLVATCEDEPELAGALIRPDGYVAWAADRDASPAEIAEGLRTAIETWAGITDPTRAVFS
The experiment in a line: HPLC time course in cascade. The class given is biochemical. The settings on record: NADPH, GrhO5, GrhO1, with HyalJ; 4a generated in situ from 3b.

For assay [2], the target named is T2, GrhO10 (Streptomyces sp. JP95, UniProt Q8KSW1).
T2 construct: recombinant from E. coli, Ni-NTA purified (His-tag)
T2 sequence (Q8KSW1 1-249): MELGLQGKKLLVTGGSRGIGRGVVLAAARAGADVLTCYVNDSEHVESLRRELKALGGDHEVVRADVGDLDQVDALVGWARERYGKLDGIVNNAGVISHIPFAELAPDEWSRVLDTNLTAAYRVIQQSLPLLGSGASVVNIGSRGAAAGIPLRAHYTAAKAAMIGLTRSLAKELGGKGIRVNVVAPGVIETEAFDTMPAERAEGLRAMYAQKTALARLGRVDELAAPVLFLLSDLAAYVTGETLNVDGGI
The experiment in a line: HPLC, UPLC-HRMS/MS of product […]. The class given is biochemical. The note with it: 4a/4b generated in situ by cascade (GrhO5, GrhO1, NADPH); redox form not resolved; low turnover.

Assay [3] addresses T3, GrhO6 (Streptomyces sp. JP95, UniProt Q8KSX5, K425M).
T3 construct: recombinant, purified; group A FAD monooxygenase; acetylated at K5 by HyalJ in some assays
The experiment in a line: HPLC assay, 5a/5b formation. The settings on record: with HyalJ; activity similar to wild type; substrate not named explicitly for the variant. The class given is biochemical.

The target of assay [4] is T4, GrhO6 (Streptomyces sp. JP95, UniProt Q8KSX5, K57M).
T4 construct: recombinant, purified; group A FAD monooxygenase; acetylated at K5 by HyalJ in some assays
T4 sequence (Q8KSX5 entry or part of it K57M): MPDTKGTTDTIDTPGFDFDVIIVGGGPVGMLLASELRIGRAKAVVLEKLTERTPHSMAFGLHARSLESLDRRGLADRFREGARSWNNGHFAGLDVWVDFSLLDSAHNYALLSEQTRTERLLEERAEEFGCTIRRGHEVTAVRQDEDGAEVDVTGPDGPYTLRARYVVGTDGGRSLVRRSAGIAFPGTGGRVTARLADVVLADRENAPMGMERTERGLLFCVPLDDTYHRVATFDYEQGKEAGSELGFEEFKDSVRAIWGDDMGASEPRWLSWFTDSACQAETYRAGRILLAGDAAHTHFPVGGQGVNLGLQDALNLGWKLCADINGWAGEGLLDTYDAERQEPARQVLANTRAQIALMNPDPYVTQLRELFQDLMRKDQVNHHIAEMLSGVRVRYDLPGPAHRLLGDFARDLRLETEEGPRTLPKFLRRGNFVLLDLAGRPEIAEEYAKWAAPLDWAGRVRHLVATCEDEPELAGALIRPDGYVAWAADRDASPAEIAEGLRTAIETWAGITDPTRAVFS
Briefly: HPLC assay, 5a/5b formation. The class given is biochemical. The settings on record: with HyalJ; activity similar to wild type; substrate not named explicitly for the variant.

Assay [5] addresses T1, GrhO6. The experiment in a line: turnover before digest and UPLC-HRMS. The class given is biochemical. The note with it: with AcCoA and HyalJ.
In assay [6] the target is T5, HyalO10 (Streptomyces hyaluromycini, UniProt Z9NP16K308).
T5 construct: heterologously produced and purified; hyaluromycin gene cluster, homologue of GrhO10
T5 sequence (Z9NP16K308 1-249): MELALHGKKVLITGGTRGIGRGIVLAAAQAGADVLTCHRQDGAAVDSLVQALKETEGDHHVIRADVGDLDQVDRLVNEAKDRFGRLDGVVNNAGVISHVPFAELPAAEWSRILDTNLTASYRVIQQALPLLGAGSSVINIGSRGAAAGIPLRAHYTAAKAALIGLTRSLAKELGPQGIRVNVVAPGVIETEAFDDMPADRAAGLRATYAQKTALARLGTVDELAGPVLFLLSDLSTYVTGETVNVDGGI
Briefly: HPLC coupled cascade assay, 6a/6b formation. In kind it is biochemical. The note with it: 5a/5b generated in situ (GrhO5, GrhO1, GrhO6, HyalJ, NADPH); redox form not resolved.

For assay [7], the target named is T2, GrhO10. Briefly: HPLC time course of 6b formation. The class given is biochemical. The settings on record: isolated 5b.
The target in assay [8] is T6, HyalJ (Streptomyces hyaluromycini, UniProt Z9LXF2D8B5).
T6 construct: recombinant from E. coli, N-terminal GB1 solubility tag; GNAT, homologue of GrhJ
T6 sequence (Z9LXF2D8B5 1-325): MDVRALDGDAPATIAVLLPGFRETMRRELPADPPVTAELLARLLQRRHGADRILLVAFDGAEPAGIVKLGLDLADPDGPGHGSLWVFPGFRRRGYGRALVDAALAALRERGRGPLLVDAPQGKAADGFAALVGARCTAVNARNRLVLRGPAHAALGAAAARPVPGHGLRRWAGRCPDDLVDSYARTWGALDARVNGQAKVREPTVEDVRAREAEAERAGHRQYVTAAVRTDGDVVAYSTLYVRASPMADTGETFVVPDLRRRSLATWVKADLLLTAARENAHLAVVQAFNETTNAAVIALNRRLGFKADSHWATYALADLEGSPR
Briefly: co-purification from E. coli, UPLC-HRMS of released ligand. The class given is binding. The note with it: acyl donor.

Assay [9] addresses T1, GrhO6. The experiment in a line: HPLC enzyme assay. In kind it is biochemical. The note with it: inhibitor of turnover of 4a(b); 8 produced in situ, its structure only inferred from MS.
Setting [10] is: equal effect to AcCoA with apo HyalJ.

Structures are written as SMILES.

T3 sequence (Q8KSX5 entry or part of it K425M): as the sequence (Q8KSX5 entry or part of it K57M) above, with M57K, K425M counted along it

Consider `COc1cc(O)c2c(O)c3c(c(O)c2c1O)C(=O)OC1(CCc2cc4cc(C)oc(=O)c4c(O)c2O1)C3=O` (centres unmarked) [4a, dihydrolenticulone], for which the “HPLC time course in cascade” value in [1] is given as “Compound 4a is then further converted into 5a/5b”. Moreover, the “HPLC, UPLC-HRMS/MS of product 8” value in assay [2] is given as “ketoreductases are also capable of catalyzing keto reduction of 4a/4b”. For the same compound, the “HPLC assay, 5a/5b formation” value in assay [3] and in [4] was “both were able to mediate the generation of 5a/5b in the presence of HyalJ” in each case.

`COC1=CC(=O)c2c(O)c3c(c(O)c2C1=O)C(=O)OC1(CCc2cc4cc(C)oc(=O)c4c(O)c2O1)C3=O` (centres unmarked) [4b, lenticulone]: the “turnover before digest and UPLC-HRMS” value in assay [5] is “GrhO6 after turnover of 4b in the presence of AcCoA and HyalJ”.

Regarding `COc1cc(O)c2c(O)c3c(c(O)c2c1O)OC1(CCc2cc4cc(C)oc(=O)c4c(O)c2O1)C3=O` (centres unmarked) [5a, dihydro-7,8-dideoxy-6-oxo-griseorhodin C], the “HPLC coupled cascade assay, 6a/6b formation” value in assay [6] is “When GrhO10 was substituted for HyalO10 in the enzymatic assays, 6a/6b was formed”.

Consider `COC1=CC(=O)c2c(O)c3c(c(O)c2C1=O)OC1(CCc2cc4cc(C)oc(=O)c4c(O)c2O1)C3=O` (centres unmarked) [5b, 7,8-dideoxy-6-oxo-griseorhodin C], for which the “HPLC time course of 6b formation” value in assay [7] was “the enzymatic formation of 6b was clearly observed in the presence of GrhO10”.

As to `CC(=O)SCCNC(=O)CCNC(=O)[C@H](O)C(C)(C)COP(=O)(O)OP(=O)(O)OC[C@H]1O[C@@H](n2cnc3c(N)ncnc32)[C@H](O)[C@@H]1OP(=O)(O)O` [acetyl-CoA], the “co-purification from E. coli, UPLC-HRMS of released ligand” value (from here on “co-purification from E. coli, UPLC-HRMS”) in assay [8] (acetylates GrhO6 at K5, restores activity of apo HyalJ) was “which clearly confirmed the presence of AcCoA”.

Consider `COc1cc(O)c2c(O)c3c(c(O)c2c1O)C(=O)OC1(CCc2cc4cc(C)oc(=O)c4c(O)c2O1)C3O` (centres unmarked) [compound 8, 8], for which the HPLC enzyme assay result in assay [9] is given as “GrhO6 showed strongly decreased activity on 4a(b) even in the presence of only small amounts”.

Turning to `CC(C(=O)O)C(=O)SCCNC(=O)CCNC(=O)[C@H](O)C(C)(C)COP(=O)(O)OP(=O)(O)OC[C@H]1O[C@@H](n2cnc3c(N)ncnc32)[C@H](O)[C@@H]1OP(=O)(O)O` (some centres unmarked) [methylmalonyl-CoA], the “co-purification from E. coli, UPLC-HRMS” value in assay [8] (setting [10]) is “also with almost identical amounts of propionyl-CoA and methylmalonyl-CoA”.

As for `CCC(=O)SCCNC(=O)CCNC(=O)[C@H](O)C(C)(C)COP(=O)(O)OP(=O)(O)OC[C@H]1O[C@@H](n2cnc3c(N)ncnc32)[C@H](O)[C@@H]1OP(=O)(O)O` [propionyl-CoA], the “co-purification from E. coli, UPLC-HRMS” value in [8] (setting [10]) was “also with almost identical amounts of propionyl-CoA and methylmalonyl-CoA”.
